Experimental data taken from patent US10301280B2 (Plexxikon Inc., priority 2012, dated 2019).

Tested on: BaF3-FL KIT D816V or BaF3-FL KIT V560G/D816V cell line
Test: Cell-based assays of c-Kit mutant kinase activity (cell growth, ATPlite)
Conditions: at least one of the c-kit cell assays of Example 26
Description: The c-Kit mutant D816V inhibitors were assessed using an engineered BaF3-FL KIT D816V or BaF3-FL KIT V560G/D816V cell line. The BaF3-FL KIT D816V cell lines were created by introduction of KIT mutant (D816V) full length constructs that render the cells dependent on the introduced kinase for growth. Inhibitors of c-Kit mutant D816V kinase reduce or eliminate the mediated c-kit mutant D816V kinase activation, resulting in reduced cell proliferation of the BaF3-FL Kit mutant D816V cells. This inhibition is measured by the effect of compound concentration on cell growth to assess IC50 values. BaF3-FL KIT D816V cells were seeded at 1×10^4 cells per well of a 96 well cell culture plate in 50 μl of cell culture medium of RPMI Medium 1X (Invitrogen #11875-093) supplemented with 10% FBS (Invitrogen #10438), 1% Non Essential Amino Acids(Invitrogen #11140), 1% Penicillin Streptomycin (Invitrogen #15140), 1% L-Glutamine (Invitrogen #25030-081). Compounds were dissolved in DMSO at a concentration of 5 mM and were serially diluted 1:3 for a total of eight points and added to the cells to a final maximum concentration of 10 μM in 100 μl cell culture medium (final concentration 0.2% DMSO). Cells were also treated with Dasatinib as a positive control. The cells were incubated at 37° C., 5% CO2 for three days. ATPlite Buffer (Perkin Elmer #6016739) and substrate were equilibrated to room temperature, and enzyme/substrate Recombinant Firefly Luciferase/D-Luciferin was reconstituted. The cell plates were equilibrated to room temperature for 30 minutes, then lysed by addition of 25 uL per well of the ATPlite Reagent. The plate was mixed for 5 minutes on a plate shaker to lyse the cells. The plates were read on a Tecan Safire using Luminescence protocol modified to read 0.1 s per well. The luminescence reading assesses the ATP content, which correlates directly with cell number such that the reading as a function of compound concentration is used to determine the IC50 value.
Plasmids P75635 and P75565 were engineered for mammalian cell expression. In both plasmids, full-length human v-kit Hardy-Zuckerman 4 feline sarcoma viral oncogene homolog gene (NCBI accession NM_000222, KIT, residues M1-V976) was subcloned into the pCI-Neo vector (Promega E1841). Plasmid P75635 contains the mutation of residue Aspartic acid 816 to Valine. Plasmid P75565 contains the double mutation of residues Valine 560 to Glycine and Aspartic acid 816 to Valine. The pCI-neo Mammalian Expression Vector carries the human cytomegalovirus (CMV) immediate-early enhancer/promoter region to promote constitutive expression of KIT and contains the neomycin phosphotransferase gene, a selectable marker.
It is understood that the results of these assays may vary as assay conditions are varied. Inhibition levels determined under the conditions described herein represent a relative activity for the compounds tested under the specific conditions employed. The cell based assays are likely to show variability due to the complexity of the system and the sensitivity thereof to any changes in the assay conditions. […] In some instances, the compounds were not tested in all of the assays, or assay results were not valid.

IC50, < 10 µM:
COCCCOc1ccc(-c2cc3cc(NC(=O)c4[nH]nc(C)c4C)cnc3[nH]2)cc1 [P-2102, N-[2-[4-(3-methoxypropoxy)phenyl]-1H-pyrrolo[2,3-b]pyridin-5-yl]-3,4-dimethyl-1H-pyrazole-5-carboxamide]
Cc1n[nH]c(C(=O)Nc2cnc3[nH]c(-c4ccc(N5CCN(C)CC5)cc4)cc3c2)c1C [P-2104, 3,4-dimethyl-N-[2-[4-(4-methylpiperazin-1-yl)phenyl]-1H-pyrrolo[2,3-b]pyridin-5-yl]-1H-pyrazole-5-carboxamide]
Cc1n[nH]c(C(=O)Nc2cnc3[nH]c(-c4ccc(C(=O)N5CCSCC5)cc4)cc3c2)c1C [P-2105, 3,4-dimethyl-N-[2-[4-(thiomorpholine-4-carbonyl)phenyl]-1H-pyrrolo[2,3-b]pyridin-5-yl]-1H-pyrazole-5-carboxamide]
Cc1n[nH]c(C(=O)Nc2cnc3[nH]c(-c4cccc(C(=O)N5CCOCC5)c4)cc3c2)c1C [P-2106, 3,4-dimethyl-N-[2-[3-(morpholine-4-carbonyl)phenyl]-1H-pyrrolo[2,3-b]pyridin-5-yl]-1H-pyrazole-5-carboxamide]
Cc1n[nH]c(C(=O)Nc2cnc3[nH]c(-c4cccc(C(=O)N5CCCC5)c4)cc3c2)c1C [P-2107, 3,4-dimethyl-N-[2-[3-(pyrrolidine-1-carbonyl)phenyl]-1H-pyrrolo[2,3-b]pyridin-5-yl]-1H-pyrazole-5-carboxamide]
Cc1n[nH]c(C(=O)Nc2cnc3[nH]c(-c4ccnc(C5CC5)c4)cc3c2)c1C [P-2108, N-[2-(2-cyclopropyl-4-pyridyl)-1H-pyrrolo[2,3-b]pyridin-5-yl]-3,4-dimethyl-1H-pyrazole-5-carboxamide]
COc1cc(-c2cc3cc(NC(=O)c4[nH]nc(C)c4C)cnc3[nH]2)ccn1 [P-2109, N-[2-(2-methoxy-4-pyridyl)-1H-pyrrolo[2,3-b]pyridin-5-yl]-3,4-dimethyl-1H-pyrazole-5-carboxamide]
Cc1n[nH]c(C(=O)Nc2cnc3[nH]c(-c4ccnc(N5CCOCC5)c4)cc3c2)c1C [P-2110, 3,4-dimethyl-N-[2-(2-morpholino-4-pyridyl)-1H-pyrrolo[2,3-b]pyridin-5-yl]-1H-pyrazole-5-carboxamide]
Cc1n[nH]c(C(=O)Nc2cnc3[nH]c(-c4ccc(NS(C)(=O)=O)cc4)cc3c2)c1C [P-2111, N-[2-[4-(methanesulfonamido)phenyl]-1H-pyrrolo[2,3-b]pyridin-5-yl]-3,4-dimethyl-1H-pyrazole-5-carboxamide]
Cc1cc(C(=O)Nc2cnc3[nH]c(-c4ccc(F)cc4)cc3c2)nn1C [P-2119, N-[2-(4-fluorophenyl)-1H-pyrrolo[2,3-b]pyridin-5-yl]-1,5-dimethyl-pyrazole-3-carboxamide]
Cc1n[nH]c(C(=O)Nc2cnc3[nH]c(-c4ccncc4)cc3c2)c1C [P-2124, 3,4-dimethyl-N-[2-(4-pyridyl)-1H-pyrrolo[2,3-b]pyridin-5-yl]-1H-pyrazole-5-carboxamide]
Cc1n[nH]c(C(=O)Nc2cnc3[nH]c(-c4ccc(N5CCCC5)cc4)cc3c2)c1C [P-2125, 3,4-dimethyl-N-[2-(4-pyrrolidin-1-ylphenyl)-1H-pyrrolo[2,3-b]pyridin-5-yl]-1H-pyrazole-5-carboxamide]
CCCS(=O)(=O)Nc1cccc(-c2cc3cc(NC(=O)c4[nH]nc(C)c4C)cnc3[nH]2)c1 [P-2126, 3,4-dimethyl-N-[2-[3-(propylsulfonylamino)phenyl]-1H-pyrrolo[2,3-b]pyridin-5-yl]-1H-pyrazole-5-carboxamide]
Cc1n[nH]c(C(=O)Nc2cnc3[nH]c(-c4ccc(P(C)(C)=O)cc4)cc3c2)c1C [P-2127, N-[2-(4-dimethylphosphorylphenyl)-1H-pyrrolo[2,3-b]pyridin-5-yl]-3,4-dimethyl-1H-pyrazole-5-carboxamide]
Cc1n[nH]c(C(=O)Nc2cnc3[nH]c(-c4cccc(C#N)c4)cc3c2)c1C [P-2128, N-[2-(3-cyanophenyl)-1H-pyrrolo[2,3-b]pyridin-5-yl]-3,4-dimethyl-1H-pyrazole-5-carboxamide]
COc1cccc(-c2cc3cc(NC(=O)c4[nH]nc(C)c4C)cnc3[nH]2)c1F [P-2129, N-[2-(2-fluoro-3-methoxy-phenyl)-1H-pyrrolo[2,3-b]pyridin-5-yl]-3,4-dimethyl-1H-pyrazole-5-carboxamide]
Cc1cccc(-c2cc3cc(NC(=O)c4[nH]nc(C)c4C)cnc3[nH]2)c1 [P-2130, 3,4-dimethyl-N-[2-(m-tolyl)-1H-pyrrolo[2,3-b]pyridin-5-yl]-1H-pyrazole-5-carboxamide]
Cc1n[nH]c(C(=O)Nc2cnc3[nH]c(-c4ccc(F)cc4)cc3c2)n1 [P-2131, N-[2-(4-fluorophenyl)-1H-pyrrolo[2,3-b]pyridin-5-yl]-3-methyl-1H-1,2,4-triazole-5-carboxamide]
CCCc1cc(C(=O)Nc2cnc3[nH]c(-c4ccc(F)cc4)cc3c2)[nH]n1 [P-2132, N-[2-(4-fluorophenyl)-1H-pyrrolo[2,3-b]pyridin-5-yl]-3-propyl-1H-pyrazole-5-carboxamide]
CC(=O)Nc1ccc(-c2cc3cc(NC(=O)c4[nH]nc(C)c4C)cnc3[nH]2)cn1 [P-2133, N-[2-(6-acetamido-3-pyridyl)-1H-pyrrolo[2,3-b]pyridin-5-yl]-3,4-dimethyl-1H-pyrazole-5-carboxamide]
CCCCNC(=O)Nc1cccc(-c2cc3cc(NC(=O)c4[nH]nc(C)c4C)cnc3[nH]2)c1 [P-2134, N-[2-[3-(butylcarbamoylamino)phenyl]-1H-pyrrolo[2,3-b]pyridin-5-yl]-3,4-dimethyl-H-pyrazole-5-carboxamide]
COc1ccccc1-c1cc2cc(NC(=O)c3[nH]nc(C)c3C)cnc2[nH]1 [P-2135, N-[2-(2-methoxyphenyl)-1H-pyrrolo[2,3-b]pyridin-5-yl]-3,4-dimethyl-1H-pyrazole-5-carboxamide]
Cc1ncccc1-c1cc2cc(NC(=O)c3[nH]nc(C)c3C)cnc2[nH]1 [P-2136, 3,4-dimethyl-N-[2-(2-methyl-3-pyridyl)-1H-pyrrolo[2,3-b]pyridin-5-yl]-1H-pyrazole-5-carboxamide]
CC(=O)Nc1ccc(-c2cc3cc(NC(=O)c4[nH]nc(C)c4C)cnc3[nH]2)cc1 [P-2137, N-[2-(4-acetamidophenyl)-1H-pyrrolo[2,3-b]pyridin-5-yl]-3,4-dimethyl-1H-pyrazole-5-carboxamide]
Cc1n[nH]c(C(=O)Nc2cnc3[nH]c(-c4ccc(C(=O)N5CCOCC5)cc4)cc3c2)c1C [P-2138, 3,4-dimethyl-N-[2-[4-(morpholine-4-carbonyl)phenyl]-1H-pyrrolo[2,3-b]pyridin-5-yl]-1H-pyrazole-5-carboxamide]
Cc1nc(C)c(-c2cc3cc(NC(=O)c4[nH]nc(C)c4C)cnc3[nH]2)s1 [P-2139, N-[2-(2,4-dimethylthiazol-5-yl)-1H-pyrrolo[2,3-b]pyridin-5-yl]-3,4-dimethyl-1H-pyrazole-5-carboxamide]
Cc1n[nH]c(C(=O)Nc2cnc3[nH]c(-c4cnn(C(F)F)c4)cc3c2)c1C [P-2140, N-[2-[1-(difluoromethyl)pyrazol-4-yl]-1H-pyrrolo[2,3-b]pyridin-5-yl]-3,4-dimethyl-1H-pyrazole-5-carboxamide]
